Patent US4230719A, “Novel 2-[4-(3-methyl-2-thienyl)phenyl]propionic acid and pharmaceutically acceptable salt thereof and method for treating symptoms of inflammation and pain” (Toyama Chemical Co., Ltd., priority 1977, dated 1980)
Read-outs that look alike come from different tables or passages of the source.

Legend:
[1] = system: threshold value of pain due to pressure stimuli (tail); conditions: for Analgesic effect: 100% = threshold raised by 160 g
Vascular permeability = Vascular permeability in mice (Whittle's method); format: in vivo, mouse (ddY strain, male); conditions: for Inhibition: dye leakage
Experimental: (i) Vascular permeability in mice (Whittle's method)
The test compound was orally administered to each ddY strain male mouse (weighing each about 20 g). After 20 minutes, 0.1 ml/10 g of a 4%(Wt/V) solution of Pontamine Sky Blue in physiological saline was intravenously injected and 10 minutes thereafter 0.1 ml/10 g of a 0.7%(V/V) solution of acetic acid in physiological saline was injected intraperitoneally. After 30 minutes, the mice were killed by suffocation with chloroform. After immediate laparotomy, the dye leaked into the peritoneal cavity was washed out with distilled water. The washings were made up with water to 30 ml and the absorbance at 620 mμ was measured. The amount of leaked dye per 20 g of mouse weight was compared.

[2] = system: Carrageenin-induced edema; test: Carrageenin-induced edema; format: in vivo, rat (Donryu strain, male); conditions: Rattus norvegicus, po, mean in 5 hours, read-out: Inhibitory percent of swelling; for inhibition in vivo at 5 mg/kg: 5 mg/kg p.o.; for inhibition in vivo at 15 mg/kg: 15 mg/kg p.o.
Experimental: (iii) Carrageenin-induced edema
Each of the 6 Donryu strain male rats per group (each weighing about 140 g), which had been fasted overnight, was orally loaded with 4 ml of water and, after 30 minutes, the test compound was orally administered thereto. Thirty minutes thereafter, a 1%(Wt/V) solution of carrageenin in physiological saline was subcutaneously injected into the subplantar region of the left hind paw. At a time interval of one hour, starting from the end of the first hour till the end of the fifth hour after injection of carrageenin, the paw volume was measured by means of a manometer and pressure transducer. By comparison with the percent increase in swelling of the control group of rats to which a 0.5%(V/V) solution of Tween 80 had been administered, the mean inhibitory percent in 5 hours of swelling was calculated by the following equation: [formula]

[3] = system: phenylbenzoquinone writhing; test: Analgesic activity, phenylbenzoquinone method in mouse; format: in vivo, mouse (ddY strain, male); conditions: for Frequency of writhing, mean ± S.E.: during 10 minutes; for ED50: mouse, read-out: ED50
Experimental: (i) Phenylbenzoquinone method in mouse
The test compound was orally administered to each ddY strain male mouse (weighing 22±2 g; 8 mice per group). […] The frequency of writhing during 10 minutes from 5-minutes after the injection of phenylbenzoquinone was measured and compared with that of a control group to which a 0.5% Tween 80 solution was administered. The percent inhibition was calculated by the following equation: [formula]

in vivo = conditions: rat, po
[4] = Mus musculus, po, 10 min, writhing, 40 mg/kg p.o.

Compound | inhibition in vivo at 5 mg/kg [2] [%] | Frequency of writhing, mean ± S.E. ([3]; 40 mg/kg p.o.) | inhibition in vivo at 40 mg/kg [3, 4] [%] | ED50 ([3]; po) [mg/kg] | inhibition in vivo at 15 mg/kg [2] [%] | further results
CC(=O)Oc1ccccc1C(=O)O [Aspirin] |  |  |  |  |  | Analgesic effect ([1]; 200 mg/kg p.o.): 25%; Analgesic effect ([1]; 800 mg/kg p.o.): 53%; ED50 ([1]; Mus musculus, po): 710 mg/kg
CCc1ccsc1-c1ccc(C(C)C(=O)O)cc1 (stereo not shown) [Compound C1] | 9.3 | 23.1 ± 3.9 | 2.1 | > 50 |  | Dye leakage (P.S.B.) mean ± S.E. (Vascular permeability; 10 mg/kg p.o.): 316.9 ± 29.0 μg/20g; Dye leakage (P.S.B.) mean ± S.E. (Vascular permeability; 20 mg/kg p.o.): 245.9 ± 15.4 μg/20g; Inhibition (Vascular permeability; 10 mg/kg p.o.): 18.0%; Inhibition (Vascular permeability; 20 mg/kg p.o.): 36.4%; ED30 (Vascular permeability; po, mouse, read-out: ED30): 16 mg/kg; Frequency of writhing, mean ± S.E. ([3]; 10 mg/kg p.o.): 23.6 ± 5.0; Frequency of writhing, mean ± S.E. ([3]; 20 mg/kg p.o.): 23.7 ± 4.4; inhibition in vivo at 10 mg/kg ([3]; Mus musculus, po, 10 min, writhing, 10 mg/kg p.o., read-out: Inhibition): 0%; inhibition in vivo at 20 mg/kg ([3]; Mus musculus, po, 10 min, writhing, 20 mg/kg p.o., read-out: Inhibition): -0.4%; LD50 (in vivo): > 400 mg/kg
CCCc1ccsc1-c1ccc(C(C)C(=O)O)cc1 (stereo not shown) [Compound C4] | -7.2 | 24.0 ± 2.6 | -1.7 | > 50 | -2.7 | 
Cc1csc(-c2ccc(C(C)C(=O)O)cc2)c1 (stereo not shown) [Compound C5] |  | 23.4 ± 1.9 | 0.8 | > 50 |  | inhibition in vivo at 3 mg/kg ([2]; 3 mg/kg p.o.): -25.7%; inhibition in vivo at 10 mg/kg ([2]; 10 mg/kg p.o.): 0.7%
Cc1ccc(-c2ccc(C(C)C(=O)O)cc2)s1 (stereo not shown) [Compound C6] | 19.1 | 18.2 ± 2.8 | 22.9 | > 50 | 31.4 | 
Cc1cc(-c2ccc(C(C)C(=O)O)cc2)sc1C (stereo not shown) [Compound C7] | -21.6 | 19.1 ± 3.8 | 19.1 | > 50 | 15.1 | 
